The record followed here is US10073082B2, “Proteasome inhibition assay and methods of use” (UNIVERSITY HEALTH NETWORK, priority 2013, dated 2018).

Assay [1] has as its system IκB in peripheral blood monocytes. The assay can be described thus: TNFα induced degradation of IκB in monocytes from pretreated whole blood. The class given is cell-based, human. Conditions: TNFα activated monocytes, whole blood pretreated with inhibitor. The method, then:
(§1) Whole blood samples from normal human donors were collected. 100 μL aliquots of the whole blood were inserted into the bottom of 12×75 mm tubes. In order to reduce the potential for contamination of the sample with unfixed cells, blood was removed from the side of the tubes with a cotton swab. 1-2 μL of a proteasome effector was added to a first portion of the tubes and these tubes were incubated for 2 hours at 37° C. in a water bath. In this example, the proteasome effector was Bortezomib or MG-132, both proteasome inhibitors. […]
(§2) Following the above wash steps, the fixed and permeabilized cells were resuspended in 100 μL of cold Wash Buffer comprising antibodies to specific intracellular antigens (e.g., signaling targets including P-ERK, P-Akt, P-p38, P-SAPK, P-S6, and antibodies to IκB). […] The supernatant was aspirated and the cell pellet was resuspended in 350 μL of Resuspension Buffer (PerFix-P® kit) and analyzed on a flow cytometer (GALLIOS™) using a protocol with defined population gates and series of dual parameter histograms. A CD45-KO vs. SS dual parameter histogram was collected and a gate around the leukocyte population based on the CD45+ fluorescence and SS characteristics was drawn to exclude debris (CD45 negative events). […] The collected flow cytometric data was analyzed using KALUZA™ software. […]

For assay [2], the system named is proteasome activity (IκB degradation, ERK activation) in monocytes. The assay can be described thus: Proteasome inhibition in blood monocytes of Multiple Myeloma patients receiving Bortezomib therapy (LPS stimulation ex vivo). Also on record: species or system human. The method, then: (§3) Whole blood samples from eight Multiple Myeloma (MM) patients were obtained. For three of the MM patients (MM003-MM005), whole blood samples were tested with or without LPS activation (10 min stimulation at 37° C.) and the samples were processed and analyzed for IκB degradation and signaling pathway activation as described in Example 1.
(§4) Blood samples from the 5 remaining MM patients samples were pretreated with Bortezomib or RP-171 (Carfilzomib, a covalent proteasome inhibitor) and then tested and analyzed with or without LPS activation (10 min LPS at 37 37° C.) for IκB degradation and signaling pathway activation as described in Example 1. […] All of the MM patients tested were receiving Bortezomib therapy.

The subject of assay [3] is P-ERK in peripheral blood monocytes. The assay can be described thus: TNFα induced ERK activation in monocytes from pretreated whole blood. It is filed as cell-based, human. Conditions: TNFα activated monocytes, whole blood pretreated with inhibitor. The method, then: as §1, §2
The subject of another assay is IκB in granulocytes. The assay can be described thus: Flow cytometry assay, whole blood pretreated with effector: IκB levels in granulocytes after LPS. It is filed as cell-based, human. The conditions noted are these: whole blood pretreated with inhibitor, then LPS; 60 minutes time period. The method, then: (§5) The assay generally comprises treating whole blood with an IκB degradation agonist and/or proteasome effector, fixing the blood cells, permeabilizing the fixed bloods cells, treating the fixed and permeabilized cells with an alcohol treatment to unmask intracellular phosphor-epitopes, and then staining the treated cells with antibodies for flow cytometry analysis.
(§6) Whole blood samples from normal human donors were collected. 100 μL aliquots of the whole blood were inserted into the bottom of 12×75 mm tubes. In order to reduce the potential for contamination of the sample with unfixed cells, blood was removed from the side of the tubes with a cotton swab. […]
(§7) Following the above wash steps, the fixed and permeabilized cells were resuspended in 100 μL of cold Wash Buffer comprising antibodies to specific intracellular antigens (e.g., signaling targets including P-ERK, P-Akt, P-p38, P-SAPK, P-S6, and antibodies to IκB). […] The supernatant was aspirated and the cell pellet was resuspended in 350 μL of Resuspension Buffer (PerFix-P® kit) and analyzed on a flow cytometer (GALLIOS™) using a protocol with defined population gates and series of dual parameter histograms. A CD45-KO vs. SS dual parameter histogram was collected and a gate around the leukocyte population based on the CD45+ fluorescence and SS characteristics was drawn to exclude debris (CD45 negative events). […]
For orientation: In flow cytometry, cells or beads pass a laser one at a time.

The test system of assay [4] is IκB in peripheral blood monocytes. The experiment in a line: Flow cytometry assay, whole blood pretreated with effector: LPS induced degradation of IκB in monocytes. The class given is cell-based, human. Conditions: monocytes, whole blood pretreated with inhibitor 2 hours at 37° C., then LPS; within 10 minutes. The method, then: as §1, with “inhibitors. Following pretreatment with the proteasome effector, 2 μL of 50 mg/mL stock solution (100 ng) of an IκB degradation agonist was added to the tubes and the tubes were incubated from 1 minute to 60 minutes at 37° C. in a water bath. In this example, the agonist was lipopolysaccharide (LPS). A second portion of the tubes were treated with the IκB degradation agonist and no proteasome effector.” for “inhibitors.”
Following the above wash steps, the fixed and permeabilized cells were resuspended in 100 μL of cold Wash Buffer comprising antibodies to specific intracellular antigens (e.g., signaling targets including P-ERK, P-Akt, P-p38, P-SAPK, P-S6, and antibodies to IκB). […] The supernatant was aspirated and the cell pellet was resuspended in 350 μL of Resuspension Buffer (PerFix-P® kit) and analyzed on a flow cytometer (GALLIOS™) using a protocol with defined population gates and series of dual parameter histograms. A CD45-KO vs. SS dual parameter histogram was collected and a gate around the leukocyte population based on the CD45+ fluorescence and SS characteristics was drawn to exclude debris (CD45 negative events). […] The collected flow cytometric data was analyzed using KALUZA™ software.
Phosphorylation of signaling pathways activated by LPS, including ERK, Akt (activated by PI3 Kinase), and the ribosomal S6 protein (a marker of protein synthesis) were also monitored together with the degradation of IκB. […] The degradation of IκB in cells pretreated with MG-132 or GDC-0941 was monitored by flow cytometry as described in Example 1. […]

For assay [5], the system named is IκB in peripheral blood lymphocytes. The assay can be described thus: Flow cytometry assay, whole blood pretreated with effector: LPS induced degradation of IκB in lymphocytes. The conditions noted are these: whole blood pretreated with inhibitor, then LPS. The class given is cell-based, human. The method, then:
as §5, §6, §7

The next assay concerns granulocytes. The experiment in a line: IκB degradation agonists in whole blood: IκB degradation and signaling pathway activation in granulocytes. It is filed as cell-based, human. The method, then: (§8) Whole blood samples from normal human donors were collected. 100 μL aliquots of the whole blood were inserted into the bottom of 12×75 mm tubes. In order to reduce the potential for contamination of the sample with unfixed cells, blood was removed from the side of the tubes with a cotton swab. 1-2 μL of a proteasome effector was added to a first portion of the tubes and these tubes were incubated for 2 hours at 37° C. in a water bath. In this example, the proteasome effector was Bortezomib or MG-132, both proteasome inhibitors. Following pretreatment with the proteasome effector, 2 μL of […] stock solution (100 ng) of an IκB degradation agonist was added to the tubes and the tubes were incubated from 1 minute to 60 minutes at 37° C. in a water bath. In this example, the agonist was lipopolysaccharide (LPS). A second portion of the tubes were treated with the IκB degradation agonist and no proteasome effector. 2 μL of an IκB degradation agonist was added to these tubes and the tubes were incubated from 1 minute to 60 minutes as described above. For control tubes, 2 μL of phosphate buffered saline (PBS) was added to the tubes and the tubes were incubated as described above.
(§9) Following incubation, the cells were fixed and permeabilized with a PerFix-P® kit (Beckman Coulter, Inc., Brea. Calif.) according to the manufacturer's instructions. The fixed and permeabilized cells were then washed with 2 mL of Wash Buffer (PBS (w/o Ca++/Mg++) with 2% fetal bovine serum (FBS), sterile filtered (0.22 μm filter)) in the tubes and centrifuged at 500×g for 4 minutes. The cell pellet was resuspended in 2 mL of cold (4° C.) Wash Buffer, centrifuged at 500×g for 4 minutes, and the supernatant was aspirated.
Following the above wash steps, the fixed and permeabilized cells were resuspended in 100 μL of cold Wash Buffer comprising antibodies to specific intracellular antigens (e.g., signaling targets including P-ERK, P-Akt, P-p38, P-SAPK, P-S6, and antibodies to IκB). The antibodies were labeled with different fluorochromes (e.g. fluorophores) to facilitate their-individual measurement of the intracellular antigens. […] The supernatant was aspirated and the cell pellet was resuspended in 350 μL of Resuspension Buffer (PerFix-P® kit) and analyzed on a flow cytometer (GALLIOS™) using a protocol with defined population gates and series of dual parameter histograms. A CD45-KO vs. SS dual parameter histogram was collected and a gate around the leukocyte population based on the CD45+ fluorescence and SS characteristics was drawn to exclude debris (CD45 negative events). […] The collected flow cytometric data was analyzed using KALUZA™ software.

Assay [6] concerns peripheral blood lymphocytes. The experiment in a line: IκB degradation agonists in whole blood: IκB degradation and signaling pathway activation in lymphocytes. It is filed as cell-based, human. Conditions: for Pathways Activated: Target Cell Population: Lymphocytes (subpopulation). The method, then:
as §8, §9
(§10) Following the above wash steps, the fixed and permeabilized cells were resuspended in 100 μL of cold Wash Buffer comprising antibodies to specific intracellular antigens (e.g., signaling targets including P-ERK, P-Akt, P-p38, P-SAPK, P-S6, and antibodies to IκB). The antibodies were labeled with different fluorochromes (e.g. fluorophores) to facilitate their-individual measurement of the intracellular antigens. In order to target specific cell populations in the assay, antibodies capable of differentiating cell populations within the blood sample were also included in some of the tubes. For example, anti-CD14 antibodies were included to specifically label monocytes, anti-CD3 antibodies or anti-CD19 antibodies were included to specifically label T or B-cells respectively, and/or anti-CD38/CD138 antibodies were included to specifically label plasma cells. The cells were incubated with the antibodies for 30 minutes at room temperature and then the cells were washed in 2 mL of cold Wash Buffer and centrifuged as described above. The supernatant was aspirated and the cell pellet was resuspended in 350 μL of Resuspension Buffer (PerFix-P® kit) and analyzed on a flow cytometer (GALLIOS™) using a protocol with defined population gates and series of dual parameter histograms. A CD45-KO vs. SS dual parameter histogram was collected and a gate around the leukocyte population based on the CD45+ fluorescence and SS characteristics was drawn to exclude debris (CD45 negative events). A minimum of 2,500 CD14+ events were collected. A stop count region was set from the CD14-PC7 vs. SS histogram gated on monocytes. Dual parameter histograms gated on the appropriate populations were created to measure the populations of interest. The collected flow cytometric data was analyzed using KALUZA™ software.
(§11) Phosphorylation of signaling pathways activated by TNF-α, including ERK, Akt, and the ribosomal S6 protein, was monitored together with the degradation of IκB in peripheral blood WBCs. Whole blood samples were treated, activated, and processed as described in Example 1 and the degradation of IκB in peripheral blood cells was monitored by flow cytometry as described in Example 1. The IκB degradation agonist used in this example was TNF-α. […]

For the next assay, the system named is monocytes of MM patients. The experiment in a line: LPS stimulation of monocytes in whole blood of Multiple Myeloma patients. The conditions noted are these: 10 min LPS. It is filed as cell-based, human. The method, then:
as §3, §4

In assay [7] the test system is peripheral blood monocytes. The assay can be described thus: IκB degradation agonists in whole blood: IκB degradation and signaling pathway activation in monocytes. It is filed as cell-based, human. The conditions noted are these: for Pathways Activated: Target Cell Population: Monocytes. The method, then: as §8, §9, §10, §11
The mark [8] stands for this setting: three MM patients (MM003-MM005), 10 min LPS at 37° C.

Consider `CC(C)C[C@H](NC(=O)[C@H](Cc1ccccc1)NC(=O)c1cnccn1)B(O)O` [Bortezomib], for which the “degradation of IκB” value in assay [1] is listed as “completely inhibited”. Also, the proteasome inhibition entry in [2] (all MM patients tested, blood draw a week after the treatment) is listed as “no proteasome inhibition was detected”. For the same molecule, in assay [2] (setting [8]), the “inhibition of ERK activation following LPS stimulation” value is “no inhibition” and the “inhibition of IκB degradation following LPS stimulation” value is reported as “no inhibition”. Also, the “activation of ERK” value in assay [3] is reported as “completely inhibited”. Further, the “degradation of IκB in granulocytes” value in the assay with IκB in granulocytes is listed as “No significant degradation”. Further, the “loss in measured IκB” value in assay [4] was approximately 10%. Besides, in assay [5], the “LPS induced degradation of IκB in lymphocytes” value is listed as “inhibition of LPS induced degradation of IκB”.

Turning to lipopolysaccharide [LPS], the “Pathways Activated” value is given as “P-p38 MAP kinase” in the assay on granulocytes (Target Cell Population: Granulocytes); “ERK MAP kinase (Tpl-2)” in [6] (pathway: ERK MAP kinase (Tpl-2)); “IκB > NFκB” in assay [6] (pathway: IκB > NFκB); “PI3 kinase > Akt” in assay [6] (pathway: PI3 kinase > Akt); “IκB > NFκB” in assay [7] (pathway: IκB > NFκB); “P-p 38 MAP kinase” in assay [7] (pathway: P-p 38 MAP kinase). Besides, the “Pathways Activated” value in assay [7] (pathway: PI3 kinase > Akt) is “PI3 kinase > Akt”; in assay [7] (pathway: SAP/JNK MAP kinase) it was “SAP/JNK MAP kinase”; in [7] (pathway: Tpl-2 > ERK/MAP kinase), “Tpl-2 > ERK/MAP kinase”. The “degradation of IκB in granulocytes” value in the assay on granulocytes (agonist alone) was “No significant degradation”. The “degradation of IκB in lymphocytes at 10 min” value in [6] (agonist alone, 10 min) is listed as “no significant degradation”. Further, in the assay on monocytes of MM patients (six MM samples), the “loss of IκB” value is on record as 60-70%. The “percent decrease of IκB MFI” value with monocytes of MM patients (two MM samples) was 48%. For the same molecule, the “loss in measured IκB” value in assay [7] (agonist alone, normal donors, monocytes, within 10 minutes of treatment) is given as 60-70%.
